According to patent US20200121677A1, “SUBSTITUTED 6,7-DIHYDROPYRAZOLO[1,5-a]PYRAZINES AS NEGATIVE ALLOSTERIC MODULATORS OF MGLUR2 RECEPTORS” (Janssen Pharmaceutica NV, priority 2014, published 2020):
Like-named read-outs stand apart in the source and are kept apart here.

Key:
Male Wiga Wistar rats = assay: Reversal of LY-404039-induced decrease of palpebral opening in apomorphine-challenged rats; type: in vivo, rat; details: rats, route PO (route cell empty for Co. 88 and 84); for ED50: Rattus norvegicus, read-out: ED50 APO LY-404039 (Reversal of LY-404039-induced decrease of palpebral opening in apomorphine challenged rats)
Experimental: 1) Reversal of LY-404039-Induced Decrease of Palpebral Opening in Apomorphine-Challenged Rats.
Male Wiga Wistar rats (Crl:WI; Charles River Germany; 220±40 g) were housed under standard laboratory conditions (21±2° C.; 50-65% relative humidity; light-dark cycle set at 12 h; lights on at 6.00 h) and fasted overnight prior to the start of the experiments (tap water remained available ad libitum). During the test period, they were housed in individual cages. Palpebral opening was scored every 5 min over the first hour after injection of apomorphine (1.0 mg/kg, i.v.) in animals either pretreated or not pretreated with LY-404039 (2.5 mg/kg, s.c.) at 1 h prior to the apomorphine injection. The animals were also pretreated with test compound or solvent at a predefined interval before apomorphine challenge. The score system was: (5) exophthalmos, (4) wide open, (3) open for three-quarters, (2) half open, (1) open for one-quarter, (0) closed. The scores for palpebral opening were cumulated over the 60-min observation period.

Wiga rats = assay: Induction of mydriasis (pupil diameter, test 1 and test 2); type: in vivo, rat; details: route PO; for ED50: Rattus norvegicus
Experimental: 3) Induction of Mydriasis
The pupil diameter of Wiga rats was measured with a microscopic micrometer (1 unit=1/24 mm). Criteria for drug-induced effects: pupil diameter >25 units for mydriasis (in controls: 1.9%) 1 h post-administration of the test compound (test 1) or 1, 2 or 3 h post-administration of the test compound (test 2, wherein the maximum pupil diameter over the full 3 h period is reported).

rats = assay: Reversal of the effect of the mGluR2 PAM JNJ-42153605-induced inhibition of scopolamine-induced hyperlocomotion; type: in vivo, rat; details: rats, route PO, criterion total distance >1500 cm; for ED50: Rattus norvegicus, read-out: ED50 SCOP JNJ-42153605 (Reversal of the effect of JNJ 42153605 on scopolamine-induced hyperlocomotion)
Experimental: 2) Reversal of the Effect of the mGluR2 PAM JNJ-42153605-Induced Inhibition of Scopolamine-Induced Hyperlocomotion
Motor activity was measured in microprocessor-based motor activity arenas (closed gray PVC cylinders with a height of 39 cm and a diameter of 31 cm). Each arena was placed on an infrared LED (8×8 LEDs) lit box (white PVC squared box; 40×40 cm^2; height 12.5 cm. An infrared-sensitive tube camera and a white light source were mounted to the ceiling above the observation chamber to track the animal. The total distance traveled (cm) was recorded and analyzed using the Noldus Ethovision XT Video Tracking System (Version 7.0.418; Noldus, Wageningen, The Netherlands). The intensity of the light within the activity cages (measured in the centre at the level of the floor) ranged between 4 and 8 LUX.
The rats were pretreated with test compound or vehicle at 60 min before the start of the activity recordings and placed into individual cages. The rats were challenged with JNJ-42153605 (3-(cyclopropylmethyl)-7-(4-phenylpiperidin-1-yl)-8-(trifluoromethyl)[1,2,4]triazolo[4,3-a]pyridine; WO2010/130424; Cid et al. J. Med. Chem. 2012, 55, 8770-8789) (20 mg/kg, i.v.) 30 min before the start of the activity recording combined with scopolamine (0.16 mg/kg, i.v.) just before the start of the activity measurements. Immediately after the injection of scopolamine, the rats were placed into the activity monitors and total distance traveled over the first 30 min was measured.
For reversal of the inhibitory effect of JNJ-42153605 on the scopolamine-induced hyperlocomotion, the following all-or-none criteria were adopted: (1) reversal: total distance >1500 cm.

human mGlu2 receptor = human mGlu2 receptor (Homo sapiens, UniProt Q14416); assay: [35S]GTPγS binding assay, mGluR2 negative allosteric modulation (membranes from CHO cells transfected with human mGlu2 receptor, glutamate ~EC80 60 μM); details: for IC50: GTPγS - hmGluR2 anGT pIC50, membranes with human mGlu2 receptor; for IC50 / GTPγS - hmGluR2 anGT pIC50: glutamate ~EC80 (60 μM), pIC50 = -log IC50 (M); for Emax: read-out: GTPγS - hmGluR2 anGT Emax, relative maximal effect: maximal % inhibition relative to the control glutamate response; for GTPγS - hmGluR2 anGT pIC50: membranes with human mGlu2 receptor; for GTPγS - hmGluR2 anGT Emax: relative maximal effect: maximal % inhibition relative to the control glutamate response;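 on all read-outs here: membranes preincubated 30 min at 30 °C with compound plus glutamate, then [35S]GTPγS (0.1 nM) incorporation measured over another 30 min at 30 °C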
[1] = pupil diameter >25 units, maximum over 1, 2 or 3 h post-administration, read-out: ED50 MYD Test 2 (Induction of mydriasis)
[2] = pupil diameter >25 units, maximum over 1, 2 or 3 h post-administration

Sequence of human mGlu2 receptor (Q14416 19-872): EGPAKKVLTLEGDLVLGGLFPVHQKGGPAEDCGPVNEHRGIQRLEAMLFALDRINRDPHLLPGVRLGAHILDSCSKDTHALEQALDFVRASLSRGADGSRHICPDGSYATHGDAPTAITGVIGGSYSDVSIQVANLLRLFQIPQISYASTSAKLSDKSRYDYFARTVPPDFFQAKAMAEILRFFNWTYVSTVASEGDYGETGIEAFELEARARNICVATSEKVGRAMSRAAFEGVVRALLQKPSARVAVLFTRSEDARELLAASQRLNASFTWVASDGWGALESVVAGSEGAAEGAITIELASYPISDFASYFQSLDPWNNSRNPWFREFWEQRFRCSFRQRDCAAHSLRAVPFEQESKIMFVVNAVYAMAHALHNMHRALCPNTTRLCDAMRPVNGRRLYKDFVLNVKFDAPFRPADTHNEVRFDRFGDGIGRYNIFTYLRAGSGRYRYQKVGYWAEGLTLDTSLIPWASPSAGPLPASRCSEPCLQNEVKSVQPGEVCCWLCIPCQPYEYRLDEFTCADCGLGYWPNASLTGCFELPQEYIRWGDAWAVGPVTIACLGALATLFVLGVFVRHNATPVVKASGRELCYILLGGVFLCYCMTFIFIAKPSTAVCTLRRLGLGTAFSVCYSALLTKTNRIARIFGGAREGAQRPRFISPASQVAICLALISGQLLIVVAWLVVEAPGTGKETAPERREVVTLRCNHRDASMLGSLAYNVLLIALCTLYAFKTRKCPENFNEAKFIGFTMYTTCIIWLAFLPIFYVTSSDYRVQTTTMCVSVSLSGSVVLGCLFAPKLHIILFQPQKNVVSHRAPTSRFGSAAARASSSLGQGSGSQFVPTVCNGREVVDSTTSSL

Structure (SMILES) | ED50 (Male Wiga Wistar rats) [mg/kg] | ED50 (Wiga rats; [1]) [mg/kg] | ED50 (rats) [mg/kg] | IC50 (human mGlu2 receptor) [M] | Emax (human mGlu2 receptor) [%] | melting point [°C] | ED50 (Wiga rats; pupil diameter >25 units 1 h post-administration, read-out: ED50 MYD Test 1 (Induction of mydriasis)) [mg/kg] | ED50 MYD Test 2 (Induction of mydriasis) (Wiga rats; [2]) [mg/kg] | ED50 SCOP JNJ-42153605 (Reversal of the effect of JNJ 42153605 on scopolamine-induced hyperlocomotion) (rats) [mg/kg] | GTPγS - hmGluR2 anGT pIC50 (human mGlu2 receptor) | GTPγS - hmGluR2 anGT Emax (human mGlu2 receptor) [%] | ED50 APO LY-404039 (Reversal of LY-404039-induced decrease of palpebral opening in apomorphine challenged rats) (Male Wiga Wistar rats) [mg/kg]
C[C@H]1CN(c2ccc(C(F)(F)F)cc2)C(=O)c2c(C(=O)Nc3cccnc3)cnn21 [compound 1, (7S)-7-methyl-4-oxo-N-(3-pyridyl)-5-[4-(trifluoromethyl)phenyl]-6,7-dihydropyrazolo[1,5-a]pyrazine-3-carboxamide] | 0.39 | > 40 | 0.2 | 1.91e-09 | 111 | 167.35 |  |  |  |  |  | 
Cc1cc(NC(=O)c2cnn3c2C(=O)N(c2ccc(C(F)(F)F)cc2)C[C@@H]3C)ccn1 [compound 5] | 0.32 |  | 1.27 | 3.02e-09 | 105 | 215 | > 10 |  |  |  |  | 
C[C@H]1CN(c2ccc(C(F)(F)F)cc2)C(=O)c2c(C(=O)Nc3ccccn3)cnn21 [compound 9] | > 2.5 | > 10 | 0.32 | 1.12e-08 | 103 | 246.7 |  |  |  |  |  | 
C[C@H]1CN(c2ccc(C(F)(F)F)c(F)c2)C(=O)c2c(C(=O)Nc3cccnc3)cnn21 [compound 21] |  |  |  |  |  |  |  | 7.9 | 0.32 | 8.72 | 108 | 
C[C@H]1CN(c2ccc(Cl)c(Cl)c2)C(=O)c2c(C(=O)Nc3cccnc3)cnn21 [compound 26] |  |  |  |  |  |  |  | 5 | 0.32 | 9.08 | 107 | 
C[C@H]1CN(c2ccc(Cl)c(Cl)c2)C(=O)c2c(C(=O)Nc3cncc(F)c3)cnn21 [compound 27] |  |  |  |  |  |  |  | >10 | 0.32 | 9.09 | 108 | 
Cc1ccncc1NC(=O)c1cnn2c1C(=O)N(c1ccc(Cl)c(Cl)c1)C[C@@H]2C [compound 30] |  | 3.1 | 0.51 | 1.1e-09 | 111 | 225 |  |  |  |  |  | 
Cc1cc(N2C[C@H](C)n3ncc(C(=O)Nc4cccnc4)c3C2=O)ccc1C(F)(F)F [compound 36, (7S)-7-Methyl-5-[3-methyl-4-(trifluoromethyl)phenyl]-4-oxo-N-(3-pyridyl)-6,7-dihydropyrazolo[1,5-a]pyrazine-3-carboxamide] |  | 20 | 0.2 | 8.51e-10 | 111 | 156.85 |  |  |  |  |  | 
Cc1ccncc1NC(=O)c1cnn2c1C(=O)N(c1ccc(C(F)(F)F)c(C)c1)C[C@@H]2C [compound 38] |  | 2 | 0.2 | 1.15e-09 | 108 | 186.5 |  |  |  |  |  | 
Cc1cc(N2C[C@H](C)n3ncc(C(=O)Nc4cncc(F)c4)c3C2=O)ccc1C(F)(F)F [compound 39] |  | 5 | 0.32 | 9.33e-10 | 112 | 144.6 |  |  |  |  |  | 
C[C@H]1CN(c2ccc(C(F)(F)F)c(Cl)c2)C(=O)c2c(C(=O)Nc3ccccn3)cnn21 [compound 46] | 1.99 |  | > 2.5 | 2.75e-09 | 113 | 223 |  |  |  |  |  | 
C[C@H]1CN(c2ccc(C(F)(F)F)c(Cl)c2)C(=O)c2c(C(=O)Nc3cccnc3)cnn21 [compound 47] |  | 32 | 0.5 | 1.07e-09 | 109 | 140.43 |  |  |  |  |  | 
C[C@H]1CN(c2ccc(C(F)(F)F)cc2)C(=O)c2c(C(=O)Nc3cnccn3)cnn21 [compound 100] | 0.32 |  | 0.2 | 2.95e-09 | 119 | 225 |  |  |  |  |  | 
Cc1cc(NC(=O)c2cnn3c2C(=O)N(c2ccc(C(F)(F)F)cc2)C[C@@H]3C)cc(C)n1 [compound 101] |  |  |  |  |  |  |  | >10 | 0.5 | 8.57 | 118 | 0.79
Cc1cc(NC(=O)c2cnn3c2C(=O)N(c2ccc(C(F)(F)F)c(Cl)c2)C[C@@H]3C)ccn1 [compound 109] |  |  |  |  |  |  |  | 32 | 0.32 | 8.91 | 109 | 
C[C@H]1CN(c2ccc(Cl)c(Cl)c2)C(=O)c2c(C(=O)Nc3cnccn3)cnn21 [compound 116] |  | 5 | 0.05 | 1.35e-09 | 109 | 213.63 |  |  |  |  |  | 
COc1cc(N2C[C@H](C)n3ncc(C(=O)Nc4cncc(F)c4)c3C2=O)ccc1C(F)(F)F [compound 117] |  | > 10 | 0.51 | 3.72e-09 | 105 | 259 |  |  |  |  |  | 
Cc1cc(NC(=O)c2cnn3c2C(=O)N(c2ccc(Cl)c(Cl)c2)C[C@@H]3C)cc(C)n1 [compound 118] |  |  |  |  |  |  |  | 1.3 | >0.63 | 8.8 | 105 | >0.63
Cc1c(F)cncc1NC(=O)c1cnn2c1C(=O)N(c1ccc(C(F)(F)F)cc1)C[C@@H]2C [compound 124, (7S)—N-(5-Fluoro-4-methyl-3-pyridyl)-7-methyl-4-oxo-5-[4-(trifluoromethyl)phenyl]-6,7-dihydropyrazolo[1,5-a]pyrazine-3-carboxamide] |  | > 40 | 0.2 | 2.24e-09 | 107 | 194.5 |  |  |  |  |  | 
Cc1cncc(NC(=O)c2cnn3c2C(=O)N(c2ccc(C(F)(F)F)c(Cl)c2)C[C@@H]3C)c1C [compound 126] | > 0.63 |  | > 0.63 | 1.17e-09 | 108 | 229.17 |  |  |  |  |  | 
COc1cncc(NC(=O)c2cnn3c2C(=O)N(c2ccc(C(F)(F)F)cc2)C[C@@H]3C)c1 [compound 144] | 1.99 |  | 1.01 | 4.79e-09 | 114 | 197.8 |  |  |  |  |  | 
C[C@H]1CN(c2ccc(Cl)cc2)C(=O)c2c(C(=O)Nc3cnccn3)cnn21 [compound 162] |  | > 10 | 0.13 | 6.76e-09 | 109 | 250.1 |  |  |  |  |  | 
